Reference: patent US10189809B2, “SGC stimulators” (Ironwood Pharmaceuticals, Inc., priority 2010, dated 2019)
Like-named read-outs stand apart in the source and are kept apart here.

Legend:
[1] = biological target: T1, soluble guanylate cyclase (sGC) (Homo sapiens (Human), UniProt Q02108+Q02153); test: sGC-HEK-cGMP assay run in the absence of SNP (HEK WC assay); format: cell-based; details: compound at 30 μM, absence of SNP
Procedure, shortened: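 Intracellular cGMP was measured by LC/MS, using a standard curve, in HEK293 cells treated with compound for 10 min at 37° C after a 15 min 0.5 mM IBMX pretreatment, with no SNP present. Lysis and quench used 0.1 M HCl. EC50 values came from concentration-response fits.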

[2] = biological target: T1, soluble guanylate cyclase (sGC); test: sGC-HEK-cGMP assay run with SNP incubation (HEK WC assay); format: cell-based; details: for HEK WC Assay (fold increase at 30 μM in the presence of 10 μM SNP): compound at 30 μM; for EC50: in the presence of 10 uM SNP
Procedure, shortened: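 EC50 values derive from concentration-response curves of intracellular cGMP in HEK293 cells, which express sGC endogenously. Compound and sodium nitroprusside were co-incubated 10 min at 37 °C after a 15-min 0.5 mM IBMX step, with 0.1 M HCl lysis and 1% DMSO vehicle.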

[3] = read-out: HEK WC Assay (% Emax at 10 μM with 10 uM SNP)
[4] = read-out: HEK WC Assay (% Emax at 30 μM with 10 uM SNP)

T1 sequence (Q02153 whole entry): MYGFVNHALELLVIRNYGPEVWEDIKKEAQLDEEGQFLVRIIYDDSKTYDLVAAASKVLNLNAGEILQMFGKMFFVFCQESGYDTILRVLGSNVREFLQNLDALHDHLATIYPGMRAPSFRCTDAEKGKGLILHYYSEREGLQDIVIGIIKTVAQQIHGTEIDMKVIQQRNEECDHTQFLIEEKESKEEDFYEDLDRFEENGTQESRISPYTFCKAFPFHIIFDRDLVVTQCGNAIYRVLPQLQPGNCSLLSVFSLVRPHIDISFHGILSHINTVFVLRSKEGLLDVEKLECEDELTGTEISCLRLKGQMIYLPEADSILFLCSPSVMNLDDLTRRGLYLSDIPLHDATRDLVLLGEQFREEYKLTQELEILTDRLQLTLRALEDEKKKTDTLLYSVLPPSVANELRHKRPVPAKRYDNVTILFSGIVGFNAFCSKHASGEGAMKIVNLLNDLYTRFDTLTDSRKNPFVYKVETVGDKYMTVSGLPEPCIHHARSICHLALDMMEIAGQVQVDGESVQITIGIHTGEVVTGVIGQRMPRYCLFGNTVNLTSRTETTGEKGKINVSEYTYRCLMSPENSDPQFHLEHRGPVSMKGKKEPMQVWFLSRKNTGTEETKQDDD
T1 sequence (Q02108 whole entry): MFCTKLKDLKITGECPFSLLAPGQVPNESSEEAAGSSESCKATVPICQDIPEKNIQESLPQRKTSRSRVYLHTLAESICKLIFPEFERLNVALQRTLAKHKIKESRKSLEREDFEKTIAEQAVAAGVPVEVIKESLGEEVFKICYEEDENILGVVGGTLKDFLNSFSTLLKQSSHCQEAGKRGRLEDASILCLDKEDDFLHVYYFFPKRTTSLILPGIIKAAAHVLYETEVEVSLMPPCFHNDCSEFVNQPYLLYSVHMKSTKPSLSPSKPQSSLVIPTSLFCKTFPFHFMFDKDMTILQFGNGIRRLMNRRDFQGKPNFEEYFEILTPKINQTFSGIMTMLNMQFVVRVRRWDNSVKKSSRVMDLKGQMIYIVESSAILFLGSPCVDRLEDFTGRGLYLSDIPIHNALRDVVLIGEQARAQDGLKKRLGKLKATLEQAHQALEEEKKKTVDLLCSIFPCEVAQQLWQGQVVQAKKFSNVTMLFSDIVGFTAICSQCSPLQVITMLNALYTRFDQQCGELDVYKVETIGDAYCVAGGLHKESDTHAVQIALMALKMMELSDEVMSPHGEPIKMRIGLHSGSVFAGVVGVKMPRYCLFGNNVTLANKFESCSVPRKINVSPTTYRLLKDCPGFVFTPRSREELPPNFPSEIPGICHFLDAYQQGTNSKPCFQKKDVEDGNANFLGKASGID

Compound	HEK WC Assay (fold increase at 30 μM in the absence of SNP) [1]	HEK WC Assay (fold increase at 30 μM in the presence of 10 μM SNP) [2]	Emax [2, 3]	Emax [2, 4]	EC50 [2]
Fc1ccccc1Cn1nc(-c2ncccn2)cc1C1CCC1 [Compound I-307]	C (C = 2 to <5 fold increase)	C (C = 2 to <5 fold increase)	0 to 10%	0 to 10%	
Fc1ccccc1Cn1nc(-c2cccc(Br)n2)cc1-c1ccccn1 [Compound I-308, 2-Bromo-6-(1-(2-fluorobenzyl)-5-(pyridin-2-yl)-1H-pyrazol-3-yl)pyridine]	B (B = 1 to <2 fold increase)	B (B = 1 to <2 fold increase)	0 to 10%	0 to 10%	
Oc1ccc(-c2cc(-c3ccccn3)nn2Cc2ccccc2F)cc1 [Compound I-310]	B (B = 1 to <2 fold increase)		0 to 10%	0 to 10%	
Fc1ccccc1Cn1nc(-c2ccccn2)cc1-c1cncs1 [Compound I-311]	B (B = 1 to <2 fold increase)	C (C = 2 to <5 fold increase)	0 to 10%	0 to 10%	
Fc1ccccc1Cn1nc(-c2ccccn2)cc1-c1cccc(Br)n1 [Compound I-313, 2-Bromo-6-(1-(2-fluorobenzyl)-3-(pyridin-2-yl)-1H-pyrazol-5-yl)pyridine]	C (C = 2 to <5 fold increase)	C (C = 2 to <5 fold increase)	0 to 10%	0 to 10%	

The next lines start with the values.

HEK WC Assay (fold increase at 30 μM in the absence of SNP) [1]	HEK WC Assay (fold increase at 30 μM in the presence of 10 μM SNP) [2]	Emax [2, 3]	Emax [2, 4]	EC50 [2]	Compound
B (B = 1 to <2 fold increase)	C (C = 2 to <5 fold increase)	10 to 20%	20 to 40%		Cc1cc(O)nc(-c2cc(-c3ccon3)n(Cc3ccccc3F)n2)n1 [Compound I-298]
C (C = 2 to <5 fold increase)	F (F = 20 to <30 fold increase)	60 to 80%	60 to 80%	< 20 µM	Cc1cc(Cl)nc(-c2cc(-c3ccon3)n(Cc3ccccc3F)n2)n1 [Compound I-299]
B (B = 1 to <2 fold increase)	B (B = 1 to <2 fold increase)				Oc1cc(-c2cccnc2)nc(-c2cc(-c3ccon3)n(Cc3ccccc3F)n2)n1 [Compound I-300]
D (D = 5 to <10 fold increase)	E (E = 10 to <20 fold increase)	20 to 40%	40 to 60%	< 20 µM	Fc1ccccc1Cn1nc(-c2ncccn2)cc1-c1ccco1 [Compound I-306]
B (B = 1 to <2 fold increase)	E (E = 10 to <20 fold increase)	20 to 40%	20 to 40%	< 20 µM	Fc1ccccc1Cn1nc(-c2ncccn2)cc1-c1ncco1 [Compound I-309]
